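Method: 48-hour compound exposure of cells in 96-well plates, five concentrations, linear interpolation of endpoints. GI50 marks 50% less growth.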 Activity calls are given as the source filed them. Cut-off read from the data, not from the text of the source: active = GI50 up to about 1.1 µM and inactive = higher.
What was measured:
Assay in all cases: inhibition of tumour cell growth, NCI panel, 48 h
SK-OV-3 = system: SK-OV-3
MDA-MB-231 = system: MDA-MB-231
A498 = system: A498
MDA-MB-435 = system: MDA-MB-435
TK-10 = system: TK-10
A549 = system: A549
T47D = system: T47D
OVCAR-8 = system: OVCAR-8
PC-3 = system: PC-3
NCI/ADR-RES = system: NCI/ADR-RES
DU-145 = system: DU-145
MDA-N = system: MDA-N
BT-549 = system: BT-549
OVCAR-5 = system: OVCAR-5
M14 = system: M14
DLD-1 = system: DLD-1
HOP-18 = system: HOP-18
M19-MEL = system: M19-MEL
SNB-78 = system: SNB-78
LXFL 529 = system: LXFL 529

Measured: GI50

Cc1ccc(S(=O)(=O)NCCSS(=O)(=O)c2ccc(C)cc2)cc1
inactive: SK-OV-3 > 100 µM | MDA-MB-231 37.7 µM | A498 11.3 µM | MDA-MB-435 22.3 µM | TK-10 > 100 µM | A549 25.9 µM | T47D 27.7 µM | OVCAR-8 37.9 µM | PC-3 27.6 µM | NCI/ADR-RES 25.8 µM | DU-145 42.6 µM | MDA-N 23.1 µM

O=C(CCCn1cnc([N+](=O)[O-])n1)NCCn1ccnc1[N+](=O)[O-]
inactive: SK-OV-3 > 100 µM | TK-10 > 100 µM | A549 > 100 µM | T47D > 100 µM | BT-549 > 100 µM | PC-3 > 100 µM | OVCAR-5 > 100 µM | M14 > 100 µM | DU-145 > 100 µM | MDA-N > 100 µM

Nc1nc2ccc3ccccc3c2[nH]1
inactive: SK-OV-3 > 10 µM | MDA-MB-231 > 10 µM | A498 > 10 µM | MDA-MB-435 > 10 µM | TK-10 > 10 µM | A549 > 10 µM | T47D > 10 µM | OVCAR-8 > 10 µM | PC-3 > 10 µM | OVCAR-5 > 10 µM | NCI/ADR-RES > 10 µM | M14 > 10 µM | DU-145 > 10 µM | MDA-N > 10 µM

CN(C)CCOc1cc2c(c3ccccc13)-c1ccccc1C2O (stereo not given)
inactive: SK-OV-3 16.1 µM | DLD-1 15.8 µM | HOP-18 14.8 µM | A498 15 µM | M19-MEL 16.6 µM | A549 15.5 µM | SNB-78 15.9 µM | OVCAR-8 11.7 µM | OVCAR-5 13 µM | NCI/ADR-RES 3.49 µM

COc1cc([C@@H]2c3cc4c(cc3[C@H](O)[C@H]3COC(=O)[C@H]23)OCO4)cc(OC)c1OC [PODOFILOX]
inactive: HOP-18 > 100 µM
active: LXFL 529 0.01 µM | SK-OV-3 < 0.005 µM | MDA-MB-231 < 0.005 µM | DLD-1 0.0243 µM | A498 < 0.005 µM | MDA-MB-435 < 0.005 µM | SNB-78 0.01 µM | T47D 0.5 µM | BT-549 0.0232 µM | OVCAR-8 < 0.005 µM | PC-3 < 0.005 µM | OVCAR-5 0.0375 µM | NCI/ADR-RES < 0.005 µM | DU-145 < 0.005 µM | MDA-N < 0.005 µM

COC(=O)CN(C)P(=O)(N1CC1)N1CC1
inactive: LXFL 529 > 100 µM | SK-OV-3 > 100 µM | DLD-1 > 100 µM | TK-10 > 100 µM | A549 > 100 µM | SNB-78 > 100 µM | OVCAR-8 > 100 µM | OVCAR-5 > 100 µM | M14 > 100 µM

CSC1SCC2C(=O)N(C)C(C(C)C)C(=O)OCC(NC(=O)c3cnc4ccccc4n3)C(=O)NC(C)C(=O)N(C)C1C(=O)N(C)C(C(C)C)C(=O)OCC(NC(=O)c1cnc3ccccc3n1)C(=O)NC(C)C(=O)N2C (stereo not given)
active: SK-OV-3 < 0.0147 µM | MDA-MB-231 0.000906 µM | DLD-1 0.0075 µM | HOP-18 0.0075 µM | A498 0.0075 µM | MDA-MB-435 0.00105 µM | TK-10 0.00152 µM | A549 0.0075 µM | SNB-78 0.0075 µM | T47D 0.000391 µM | BT-549 0.00158 µM | OVCAR-8 0.0075 µM | PC-3 0.000993 µM | OVCAR-5 0.0075 µM | NCI/ADR-RES 0.0454 µM | M14 0.000828 µM | DU-145 0.0031 µM

CS(C)(=O)=Nn1c(=O)n2n(c1=O)C1c3ccccc3C2c2ccccc21
inactive: SK-OV-3 > 100 µM | MDA-MB-231 > 100 µM | A498 > 100 µM | MDA-MB-435 > 100 µM | TK-10 > 100 µM | A549 > 100 µM | T47D > 100 µM | OVCAR-8 > 100 µM | PC-3 > 100 µM | OVCAR-5 > 100 µM | NCI/ADR-RES > 100 µM | M14 > 100 µM | DU-145 > 100 µM | MDA-N > 100 µM

CN(C)C(=O)Oc1c(Br)cc(Br)cc1C(=O)OCc1ccccc1
inactive: SK-OV-3 44.9 µM | DLD-1 25.4 µM | HOP-18 33.2 µM | A498 23 µM | M19-MEL 20 µM | A549 28.1 µM | SNB-78 33.1 µM | OVCAR-8 32.4 µM | OVCAR-5 28.3 µM | NCI/ADR-RES 18.5 µM

O=C1CCCC/C1=C1/SC(=N/c2ccccc2)/C(=N\c2ccccc2)N1c1ccccc1
inactive: SK-OV-3 > 100 µM | MDA-MB-231 > 100 µM | A498 > 100 µM | MDA-MB-435 > 10 µM | T47D > 100 µM | BT-549 > 100 µM | OVCAR-8 > 100 µM | PC-3 > 10 µM | OVCAR-5 > 100 µM | NCI/ADR-RES > 100 µM | M14 > 100 µM | DU-145 56.8 µM | MDA-N > 100 µM

O=c1c(-c2ccccc2)c(SCCN2CCOCC2)n(-c2ccccc2)c(=S)n1-c1ccccc1
inactive: SK-OV-3 > 100 µM | MDA-MB-231 83.9 µM | A498 > 100 µM | MDA-MB-435 > 100 µM | TK-10 46.6 µM | BT-549 > 100 µM | OVCAR-8 63 µM | PC-3 > 100 µM | OVCAR-5 > 100 µM | NCI/ADR-RES > 100 µM | DU-145 > 100 µM

O=C(NNC(=S)Nc1ccccc1)c1nsc2ccccc12
inactive: LXFL 529 28.1 µM | HOP-18 10.3 µM | M19-MEL 28.9 µM | TK-10 41.3 µM | A549 28.8 µM | SNB-78 47.9 µM | OVCAR-8 28.6 µM | OVCAR-5 57 µM | M14 14.3 µM

C1CSCCSCCSCCSC1
inactive: SK-OV-3 > 100 µM | MDA-MB-231 > 100 µM | A498 > 100 µM | MDA-MB-435 > 100 µM | TK-10 > 100 µM | A549 > 100 µM | T47D > 100 µM | BT-549 > 100 µM | OVCAR-8 > 100 µM | PC-3 > 100 µM | OVCAR-5 > 100 µM | NCI/ADR-RES > 100 µM | M14 > 100 µM | DU-145 > 100 µM | MDA-N > 100 µM

COc1ccc(/N=C\c2ccc(N(CCC#N)S(=O)(=O)c3ccccc3)cc2C)cc1
inactive: LXFL 529 8.99 µM | SK-OV-3 > 100 µM | HOP-18 > 100 µM | M19-MEL 41.7 µM | TK-10 22.9 µM | A549 26.5 µM | SNB-78 79.1 µM | OVCAR-8 > 100 µM | OVCAR-5 > 100 µM | M14 14.6 µM

O=C(Nc1ccc([N+](=O)[O-])cc1)C(=O)C(C(=O)c1ccccc1F)C1OC(=O)c2ccccc21 (stereo not given)
inactive: LXFL 529 33.7 µM | SK-OV-3 41.2 µM | DLD-1 40.6 µM | A498 80.9 µM | M19-MEL 28.1 µM | TK-10 > 100 µM | A549 67.6 µM | SNB-78 5.65 µM | OVCAR-8 35.9 µM | OVCAR-5 58.3 µM | M14 69.7 µM

CCNC(=S)NNC(=O)c1nsc2ccccc12
inactive: LXFL 529 53.3 µM | HOP-18 23.1 µM | M19-MEL 97.3 µM | TK-10 > 100 µM | A549 > 100 µM | SNB-78 > 100 µM | OVCAR-8 > 100 µM | OVCAR-5 > 100 µM | M14 > 100 µM
